# Patent US11655253B2, “CBP/catenin signaling pathway inhibitors and uses thereof” (3+2 Pharma, LLC, priority 2020, dated 2023)
# Entries after “also recorded” stand apart in the source; their conditions may differ.
# Key:
# [1] = test system: NC/Nga mice atopic dermatitis model; assay: NC/Nga mouse model of atopic dermatitis; type: in vivo; conditions: for dermatitis scores compared to vehicle control / TEWL (transepidermal water loss) compared to vehicle control: topical once daily Day 0-13; for TEWL (transepidermal water loss) compared to vehicle control: day 14; for mean body weight versus Vehicle group: any day during the treatment period
# Procedure: NC/Nga mice (female) were obtained from CHARLES RIVER LABORATORIES JAPAN INC. Mice were randomized into […] of 8 mice on Day 0 based on their body weight and dermatitis score. Eight NC/Nga mice were topically administered test compound-containing [3+2]-121A (compound 34) ointment (in a volume of 100 mg) once daily from Day 0 to Day 13, or vehicle control (hydrophilic petrolatum).
# Representative test substance [3+2]-121A was formulated in hydrophilic petrolatum at low (100 uM) and high (500 uM) dosages (referred to in the study as [3+2]-121A and [3+2]-121B, respectively). 7-week-old female NC/Nga mice were used. The first induction of atopic dermatitis was performed three weeks before compound administration, for which the mice were shaved of hair on their backs and behind the ears with a clipper and a shaver. Then the mice had their hair removed completely with a depilatory agent (Epilat™, Kracie Home Products, Ltd.) before 100 mg of Biostir AD® ointment was applied to the shaved dorsal skin and both surfaces of each ear evenly with a plastic spoon. The second induction of atopic dermatitis was performed subsequently. The mice were shaved of hair on their backs and behind the ears, then 150 μl of 4% sodium lauryl sulfate solution was applied to the back and behind the ears with a plastic spoon. After this, it was dried with a hair dryer (cold air) and then left to dry naturally for about 1 to 2 hours. 100 mg of Biostir AD® ointment was applied to the shaved dorsal skin and both surfaces of each ear evenly with a plastic spoon. This procedure was repeated twice a week for three weeks. Twenty-four atopic dermatitis model mice were sorted into 3 groups of 8 mice based on their body weight and dermatitis severity score on the morning at Day 0. Vehicle control (hydrophilic petrolatum), [3+2]-121A or [3+2]-121B was administered topically in a volume of 100 mg once daily from Day 0 to Day 13. Body weight and food consumption were measured once a week at Day 0, 7 and 14. The severity of dermatitis was evaluated at Day 0, 3, 7, 10 and 14. The development of 1) erythema/hemorrhage, 2) scarring/dryness, 3) edema, 4) excoriation/erosion were scored as 0 (none), 1 (mild), 2 (moderate) and 3 (severe). The sum of the individual scores was taken as the dermatitis score. The TEWL was evaluated at Day 0 and at Day 14 after administration. Histological analyses were performed on lower neck dorsal skin and auricle that were fixed in 10% neutral formalin, embedded in paraffin and sectioned at 3-4 μm sections and stained with hematoxylin-eosin using Carrazzi's hematoxylin solution. For analysis of the skin area, bright field images of HE-stained sections were randomly captured using a digital camera (DS-Fi3; Nikon) at 2 and 4-fold magnification. Statistical analyses were performed using Prism Software 6 (GraphPad Software, USA). Statistical analyses were performed using Dunnett's Comparison Test. Comparisons were made between the following groups; Group 1 (Vehicle) vs. Group 2 ([3+2]-121A) and Group 3 ([3+2]-121B). P values <0.05 were considered statistically significant. Results were expressed as mean±SD.
# [2] = test system: bleomycin induced model of IPF in mice; assay: Bleomycin induced mouse model of idiopathic pulmonary fibrosis; type: in vivo; conditions: for overall survival and Ashcroft scoring versus historical control data for pirfenidone and nintedanib: from day 7 after bleomycin for 2 weeks; for extracellular collagen deposition (Masson's trichrome blue staining) compared to bleomycin saline treated historical control / survival: all treatment groups; for survival: to day 21; for Ashcroft score / Left lung weight / Post-caval lobe weight / Body weight: n = 3, mean +/− SD; for Body weight: day of sacrifice
# Source text: Bleomycin induced model of IPF.
# Results. […] FIGS. 8A-8E are as follows: historical bleomycin saline treated control (8A, “ID:103”); [3+2]-120A low dose (8B, “ID:102”); [3+2]-120A high dose (8C, “ID:201”); [[3+2]-120B low dose (8D, ID:302”); and [3+2]-120B high dose (8E, ID:401”).
# [3] = test system: STAM mouse model of NASH-HCC; assay: STAM mouse model of NASH-HCC; type: in vivo, mice; conditions: after 4 weeks of treatment, vehicle 5 out of 8
# Procedure: In the vehicle control treated group only 5 out of 8 mice survived, whereas in the 3+2]-120A at 100 mg/kg/day (A-low) and 400 mg/kg/day (A-high), 7 out of 8 and 8 out of 8 mice survived respectively.
# β-catenin binding to CBP = molecular target: T1, β-catenin binding to CBP (Homo sapiens, UniProt Q92793); assay: Co-immunoprecipitation assay in SW480 cells, CBP IP; type: cell-based; conditions: 10 μM
# T1 construct: endogenous in cells; host or cells: SW480 colorectal cancer cells
# T1 sequence (Q92793 whole entry): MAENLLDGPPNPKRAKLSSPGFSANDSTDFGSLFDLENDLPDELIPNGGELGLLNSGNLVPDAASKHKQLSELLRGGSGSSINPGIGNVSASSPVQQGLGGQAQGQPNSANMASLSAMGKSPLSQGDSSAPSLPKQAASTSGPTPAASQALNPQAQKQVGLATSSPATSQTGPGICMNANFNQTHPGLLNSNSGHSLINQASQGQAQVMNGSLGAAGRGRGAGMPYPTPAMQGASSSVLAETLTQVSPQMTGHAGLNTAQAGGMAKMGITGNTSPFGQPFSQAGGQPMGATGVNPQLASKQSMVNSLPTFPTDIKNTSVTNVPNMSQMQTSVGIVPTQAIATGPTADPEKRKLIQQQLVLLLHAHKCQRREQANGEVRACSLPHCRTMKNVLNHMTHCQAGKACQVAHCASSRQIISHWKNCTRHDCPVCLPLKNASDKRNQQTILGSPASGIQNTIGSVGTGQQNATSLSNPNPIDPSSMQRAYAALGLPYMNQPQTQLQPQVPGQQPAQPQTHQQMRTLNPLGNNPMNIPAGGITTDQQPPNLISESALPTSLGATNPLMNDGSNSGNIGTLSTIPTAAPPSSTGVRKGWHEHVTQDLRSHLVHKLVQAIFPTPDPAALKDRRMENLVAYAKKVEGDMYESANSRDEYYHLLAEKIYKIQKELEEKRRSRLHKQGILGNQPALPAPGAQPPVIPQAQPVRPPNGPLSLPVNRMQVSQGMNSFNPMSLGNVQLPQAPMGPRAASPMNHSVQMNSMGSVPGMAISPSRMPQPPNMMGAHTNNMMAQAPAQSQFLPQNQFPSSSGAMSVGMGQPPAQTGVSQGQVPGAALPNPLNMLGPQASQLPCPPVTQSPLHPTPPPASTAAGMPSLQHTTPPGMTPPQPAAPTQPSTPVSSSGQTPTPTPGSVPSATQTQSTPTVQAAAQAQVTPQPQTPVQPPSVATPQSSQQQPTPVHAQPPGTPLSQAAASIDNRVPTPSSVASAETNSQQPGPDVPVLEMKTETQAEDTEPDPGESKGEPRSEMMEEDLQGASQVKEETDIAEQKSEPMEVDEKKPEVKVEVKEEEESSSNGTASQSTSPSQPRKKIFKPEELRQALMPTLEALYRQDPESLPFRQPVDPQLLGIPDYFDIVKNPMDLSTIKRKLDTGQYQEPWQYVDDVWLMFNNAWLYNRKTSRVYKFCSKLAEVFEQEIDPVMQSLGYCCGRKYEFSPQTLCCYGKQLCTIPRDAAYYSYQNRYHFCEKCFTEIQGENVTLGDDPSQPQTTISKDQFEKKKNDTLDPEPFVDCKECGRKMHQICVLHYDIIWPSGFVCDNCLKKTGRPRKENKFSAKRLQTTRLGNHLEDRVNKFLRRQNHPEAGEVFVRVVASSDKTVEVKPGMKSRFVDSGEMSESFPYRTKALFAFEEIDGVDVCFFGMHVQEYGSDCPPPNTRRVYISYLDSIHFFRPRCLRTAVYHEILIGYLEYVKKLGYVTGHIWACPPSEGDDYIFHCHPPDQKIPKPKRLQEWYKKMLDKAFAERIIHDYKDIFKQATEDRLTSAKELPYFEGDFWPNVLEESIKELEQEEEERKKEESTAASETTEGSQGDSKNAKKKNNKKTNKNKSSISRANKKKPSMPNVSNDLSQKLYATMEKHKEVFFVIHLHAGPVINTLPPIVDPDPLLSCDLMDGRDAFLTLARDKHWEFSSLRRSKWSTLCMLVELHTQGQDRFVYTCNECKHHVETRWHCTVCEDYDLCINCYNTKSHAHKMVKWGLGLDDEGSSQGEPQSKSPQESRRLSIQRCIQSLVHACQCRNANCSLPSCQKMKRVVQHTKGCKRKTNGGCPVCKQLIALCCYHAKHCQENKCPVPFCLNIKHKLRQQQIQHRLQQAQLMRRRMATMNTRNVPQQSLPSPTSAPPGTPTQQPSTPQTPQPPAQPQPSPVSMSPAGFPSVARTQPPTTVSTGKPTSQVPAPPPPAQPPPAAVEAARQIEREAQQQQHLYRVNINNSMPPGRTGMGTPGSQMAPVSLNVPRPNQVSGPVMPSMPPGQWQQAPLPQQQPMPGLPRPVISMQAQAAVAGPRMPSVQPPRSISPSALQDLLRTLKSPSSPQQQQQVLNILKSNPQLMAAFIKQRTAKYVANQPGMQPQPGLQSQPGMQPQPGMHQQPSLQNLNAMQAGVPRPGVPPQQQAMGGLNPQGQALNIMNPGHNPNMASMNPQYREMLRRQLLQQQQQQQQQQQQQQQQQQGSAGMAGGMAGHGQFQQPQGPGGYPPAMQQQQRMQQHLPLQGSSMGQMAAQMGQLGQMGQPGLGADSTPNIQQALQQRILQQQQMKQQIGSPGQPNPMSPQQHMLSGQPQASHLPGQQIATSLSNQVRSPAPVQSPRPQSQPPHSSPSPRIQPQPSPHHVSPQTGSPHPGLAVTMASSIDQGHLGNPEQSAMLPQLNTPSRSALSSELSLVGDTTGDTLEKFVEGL
# Procedure: (§1) FIG. 4A and FIG. 4B, show, according to further non-limiting aspects of the present invention, a co-immunoprecipitation assay that was performed in SW480 cells as previously described (Emami K. et al. PNAS USA, 2004 Aug. 24; 101 (34): 12682-7) to further confirm that the positive control compound ICG-001 and [3+2]-117 selectively disrupt β-catenin binding to CBP (FIG. 4A), while enhancing the binding of β-catenin to p300 (FIG. 4B). Immunoprecipitation of β-catenin with CBP was inhibited by ICG-001 at 10 μM ([…]) and by [3+2]-117 at 500 nM. […] Quantification of the immunoblotting data based upon pixelation is shown below the immunoblots.
# [4] = test system: β-catenin binding to p300; assay: Co-immunoprecipitation assay in SW480 cells, p300 IP; type: cell-based
# Procedure: as §1
# [5] = test system: patients with HCV cirrhosis; conditions: intravenous, cited from earlier work
# [6] = test system: memory CD4+ T-cells in SIVmac251-infected RMs; conditions: ART-suppressed SIVmac251-infected RMs; cited from earlier work
# [7] = both dosage groups (100 and 400 mg/kg/day p.o.)
# [8] = high dosage group (400 mg/kg/day p.o.)
structure (smiles),measurement,setting,value
CCCCCCCCCCCC(=O)Oc1ccc(C[C@H]2C(=O)N(Cc3cccc4ccccc34)C[C@H]3N2C(=O)CN(Cc2cc(-c4ccccc4)no2)N3C(=O)NCc2ccccc2)cc1 [[3+2]-121A],dermatitis scores compared to vehicle control,[1]; high (500 uM) ointment,significantly decreased
same,TEWL (transepidermal water loss) compared to vehicle control,[1]; high (500 uM) ointment,significantly decreased
same,food consumption per mouse versus Vehicle group,[1]; low (100 uM),no significant differences
same,inflammation and inflammatory cell influx (histological analysis),[1]; low (100 uM),significant reduction
same,dermatitis scores compared to vehicle control,[1]; low (100 uM) ointment,significantly decreased
same,TEWL (transepidermal water loss) compared to vehicle control,[1]; low (100 uM) ointment,significantly decreased; also recorded: significant decrease
same,dermatitis severity score on the back compared with Vehicle group,"[1]; low (100 uM), Days 10 and 14",significant decrease
same,mean body weight versus Vehicle group,[1]; low (100 uM),no significant differences
same,total dermatitis severity score compared with Vehicle control group,"[1]; low (100 uM), primarily on the back, Days 10 and 14",significant decrease
CS(=O)(=O)O.O=C1[C@H](Cc2ccc(O)cc2)N2C(=O)CN(Cc3cc(-c4ccccn4)no3)N(C(=O)NCc3ccccc3)[C@H]2CN1Cc1cccc2ncccc12 [[3+2]-120A],overall survival and Ashcroft scoring versus historical control data for pirfenidone and nintedanib,[2]; 100 mg/kg/day p.o.,compared favorably
same,overall survival and Ashcroft scoring versus historical control data for pirfenidone and nintedanib,[2]; 400 mg/kg/day p.o.,compared favorably
same,extracellular collagen deposition (Masson's trichrome blue staining) compared to bleomycin saline treated historical control,[2],significant reduction
same,survival,[2],all mice survived
same,Ashcroft scores,[2]; [7],significant decrease
same,lung weights,[2]; [7],significant decrease
same,weight gain,[2]; [7],significant increase
same,Ashcroft score,[2]; high dose (400 mg/kg/day p.o.),2.5 +/− 2.0
same,Left lung weight,[2]; high dose (400 mg/kg/day p.o.),66 ± 33 mg
same,Post-caval lobe weight,[2]; high dose (400 mg/kg/day p.o.),25 ± 18 mg
same,Body weight,[2]; high dose (400 mg/kg/day p.o.),16.9 ± 3.8 g
same,Ashcroft score,[2]; low dose p.o.,2.2 +/− 1.7
same,Left lung weight,[2]; low dose p.o.,65 ± 19 mg
same,Post-caval lobe weight,[2]; low dose p.o.,21 ± 9 mg
same,Body weight,[2]; low dose p.o.,18.2 ± 0.7 g
same,mice survived,[3]; 100 mg/kg/day p.o. (A-low),7 out of 8
same,mice survived,[3]; 400 mg/kg/day p.o. (A-high),8 out of 8
"CCOC(=O)CNC(=O)CNC(=O)Oc1ccc(C[C@H]2C(=O)N(Cc3cccc4ncccc34)C[C@H]3N2C(=O)CN(Cc2cc(-c4ccccn4)no2)N3C(=O)NCc2ccccc2)cc1 [[3+2]-120B, ethyl 2-(2-((4-(((6S,9aS)-1-(benzylcarbamoyl)-4,7-dioxo-2-((3-(pyridin-2-yl)isoxazol-5-yl)methyl)-8-(quinolin-5-ylmethyl)octahydro-1H-pyrazino[2,1-c][1,2,4]triazin-6-yl)methyl)phenoxy)carbonylamino)acetamido)acetate]",overall survival and Ashcroft scoring versus historical control data for pirfenidone and nintedanib,[2]; 400 mg/kg/day p.o.,compared favorably
same,extracellular collagen deposition (Masson's trichrome blue staining) compared to bleomycin saline treated historical control,[2],significant reduction
same,survival,[2],all mice survived
same,Ashcroft scores,[2]; [8],significant decrease
same,lung weights,[2]; [8],significant decrease
same,weight gain,[2]; [8],significant increase
same,Ashcroft score,[2]; high dose (400 mg/kg/day p.o.),2.1 +/− 0.7
same,Left lung weight,[2]; high dose (400 mg/kg/day p.o.),65 ± 13 mg
same,Post-caval lobe weight,[2]; high dose (400 mg/kg/day p.o.),21 ± 6 mg
same,Body weight,[2]; high dose (400 mg/kg/day p.o.),19.5 ± 1.6 g
same,Ashcroft score,[2]; low dose p.o.,3.9 +/− 1.4
same,Left lung weight,[2]; low dose p.o.,77 ± 15 mg
same,Post-caval lobe weight,[2]; low dose p.o.,39 ± 17 mg
same,Body weight,[2]; low dose p.o.,15.1 ± 3.8 g
O=C1[C@H](Cc2ccc(O)cc2)N2C(=O)CCN(C(=O)NCc3ccccc3)[C@H]2CN1Cc1cccc2ccccc12 [ICG-001],Immunoprecipitation of β-catenin with CBP,β-catenin binding to CBP,inhibited
same,minimal interaction between β-catenin and p300,[4],not blocked
same,amount of β-catenin co-immunoprecipitated with p300,[4]; 10 μM,slightly increases
CCCCCCCCCCCC(=O)Oc1ccc(C[C@H]2C(=O)N(Cc3cccc4ccccc34)C[C@H]3N2C(=O)CN(Cc2cc(-c4ccccc4)no2)N3C(=O)NCc2ccccc2)cc1 [[3+2]-121B],food consumption per mouse versus Vehicle group,[1]; high (500 uM),no significant differences
same,inflammation and inflammatory cell influx (histological analysis),[1]; high (500 uM),significant reduction
same,TEWL (transepidermal water loss) compared to vehicle control,"[1]; high (500 uM) ointment, listed as 121B",significant decrease
same,mean body weight versus Vehicle group,[1]; high (500 uM),no significant differences
C[C@H]1[C@H]2N(C(=O)CN(C)N2C(=O)NCc2ccccc2)[C@@H](Cc2ccc(OP(=O)(O)O)cc2)C(=O)N1Cc1cccc2cccnc12 [PRI-724],safety,[5]; 10 and 40 mg/m^2/day for 12 weeks (1 week on and 1 week off),safe
same,plasma exposure of the drug,[5]; 10 and 40 mg/m^2/day for 12 weeks,dose-dependent
same,liver histology and Child Pugh scores,"[5]; 10 and 40 mg/m^2/day for 12 weeks, in several patients",improvement
same,proliferation of T memory stem cells (SCM) and central memory T-cells (CM),[6],decrease
